The source of these data is ChEMBL document CHEMBL4043078, “Biological evaluation of pyridone alkaloids on the endocannabinoid system” (Bioorg Med Chem, 2017).

SMILES strings stand for the structures. Active and inactive are the calls of the source. The rule behind the calls is not given here.

The target in assay [1] is T1, Fatty-acid amide hydrolase 1 (Homo sapiens, UniProt O00519).
T1 sequence (O00519 whole entry): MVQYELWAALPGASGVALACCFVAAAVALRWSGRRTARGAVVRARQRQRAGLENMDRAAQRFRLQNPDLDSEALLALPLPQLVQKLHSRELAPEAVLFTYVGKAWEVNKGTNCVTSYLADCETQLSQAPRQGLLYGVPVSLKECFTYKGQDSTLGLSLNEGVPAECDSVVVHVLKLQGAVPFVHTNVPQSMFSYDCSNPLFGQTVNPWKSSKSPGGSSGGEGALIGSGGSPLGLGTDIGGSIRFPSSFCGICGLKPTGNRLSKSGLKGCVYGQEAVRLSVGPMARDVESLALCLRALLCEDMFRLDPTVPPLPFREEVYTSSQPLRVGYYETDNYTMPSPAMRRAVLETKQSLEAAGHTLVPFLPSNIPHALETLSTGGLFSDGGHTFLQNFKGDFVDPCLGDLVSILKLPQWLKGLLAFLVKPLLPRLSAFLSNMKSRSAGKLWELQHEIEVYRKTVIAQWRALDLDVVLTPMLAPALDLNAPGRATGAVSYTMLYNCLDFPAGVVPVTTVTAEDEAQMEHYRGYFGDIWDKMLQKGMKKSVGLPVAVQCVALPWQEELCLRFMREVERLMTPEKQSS
Briefly: Inhibition of FAAH in human U937 cells using [ethanolamine-1-3H]AEA as substrate after 15 mins by liquid scintillation counting method. The format is cell-based.

Assay [2] addresses T2, Cannabinoid receptor 2 (Homo sapiens, UniProt P34972). Description: Displacement of [3H]CP55,940 from human CB2 receptor expressed in CHOK1 cell membranes at 1 uM after 2 hrs by liquid scintillation counting method relative to control. For orientation: Loss of bound radioactivity is the signal in a displacement assay; it reports binding, not function.
The species named for another assay is Sus scrofa. Briefly: Inhibition of MAGL in pig brain homogenates using [3H]2-OG as substrate at 10 uM after 15 mins in presence of URB597 by liquid scintillation counting method. The format is tissue-based.
A short description of assay [3]: Inhibition of MAGL in pig brain homogenates using [3H]2-OG as substrate after 15 mins by liquid scintillation counting method. The format is tissue-based, Sus scrofa.
In assay [4] the target is T3, Prostaglandin G/H synthase 2 (Homo sapiens, UniProt P35354).
T3 sequence (P35354 whole entry): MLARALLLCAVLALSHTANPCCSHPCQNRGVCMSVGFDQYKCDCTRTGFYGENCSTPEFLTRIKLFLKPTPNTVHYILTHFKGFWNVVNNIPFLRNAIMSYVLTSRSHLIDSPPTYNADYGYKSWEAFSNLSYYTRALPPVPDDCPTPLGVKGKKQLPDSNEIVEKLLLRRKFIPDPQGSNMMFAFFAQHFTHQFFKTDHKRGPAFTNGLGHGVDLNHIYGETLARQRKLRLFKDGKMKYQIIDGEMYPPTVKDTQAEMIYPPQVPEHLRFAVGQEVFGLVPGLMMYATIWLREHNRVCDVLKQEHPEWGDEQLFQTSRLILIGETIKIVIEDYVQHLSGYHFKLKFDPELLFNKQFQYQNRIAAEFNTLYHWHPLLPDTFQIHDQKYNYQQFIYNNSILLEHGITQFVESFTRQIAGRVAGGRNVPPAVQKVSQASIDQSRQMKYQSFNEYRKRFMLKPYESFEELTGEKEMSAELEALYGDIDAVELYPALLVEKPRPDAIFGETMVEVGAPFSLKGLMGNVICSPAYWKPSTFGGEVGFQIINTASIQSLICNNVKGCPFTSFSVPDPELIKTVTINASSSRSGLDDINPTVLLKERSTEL
Description: Inhibition of recombinant human COX2 preincubated for 15 mins followed by arachidonic acid/2-OG substrate addition after 5 mins by ADHP probe-based fluorescence assay.

The target in assay [5] is T4, Lysophosphatidylserine lipase ABHD12 (Mus musculus) (UniProt Q99LR1).
T4 sequence (whole entry): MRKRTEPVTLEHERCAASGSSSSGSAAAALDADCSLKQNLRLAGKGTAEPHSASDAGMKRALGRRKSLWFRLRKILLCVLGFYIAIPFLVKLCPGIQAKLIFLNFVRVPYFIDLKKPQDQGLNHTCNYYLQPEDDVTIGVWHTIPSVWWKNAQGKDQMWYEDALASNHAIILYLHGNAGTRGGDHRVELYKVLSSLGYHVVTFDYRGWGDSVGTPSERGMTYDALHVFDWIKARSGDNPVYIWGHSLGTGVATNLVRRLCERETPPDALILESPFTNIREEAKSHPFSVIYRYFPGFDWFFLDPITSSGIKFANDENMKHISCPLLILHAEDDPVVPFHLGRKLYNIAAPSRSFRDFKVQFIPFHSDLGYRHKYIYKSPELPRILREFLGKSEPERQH
Briefly: Inhibition of ABHD12 in mouse BV2 cells preincubated for 30 mins and subsequent addition of [3H]-2-OG substrate measured after 15 mins by liquid scintillation counting method. The format is cell-based.

The target in assay [6] is T5, Monoacylglycerol lipase ABHD6 (Mus musculus) (UniProt Q8R2Y0).
T5 sequence (whole entry): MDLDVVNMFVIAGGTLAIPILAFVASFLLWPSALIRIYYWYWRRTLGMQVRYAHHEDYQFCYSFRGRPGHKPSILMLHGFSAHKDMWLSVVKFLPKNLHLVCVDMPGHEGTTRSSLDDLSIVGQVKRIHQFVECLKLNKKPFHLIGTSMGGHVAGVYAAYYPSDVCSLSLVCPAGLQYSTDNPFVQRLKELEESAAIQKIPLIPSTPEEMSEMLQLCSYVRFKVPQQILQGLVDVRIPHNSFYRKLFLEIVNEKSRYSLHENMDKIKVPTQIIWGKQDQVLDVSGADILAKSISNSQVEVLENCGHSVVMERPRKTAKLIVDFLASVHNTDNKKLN
Briefly: Inhibition of ABHD6 in mouse BV2 cells preincubated for 30 mins and subsequent addition of [3H]-2-OG substrate measured after 15 mins by liquid scintillation counting method. The format is cell-based.

The target in assay [7] is T6, Cannabinoid receptor 1 (Homo sapiens, UniProt P21554). Briefly: Displacement of [3H]CP55,940 from human CB1 receptor expressed in CHOK1 cell membranes after 2 hrs by liquid scintillation counting method.
T6 sequence (P21554 whole entry): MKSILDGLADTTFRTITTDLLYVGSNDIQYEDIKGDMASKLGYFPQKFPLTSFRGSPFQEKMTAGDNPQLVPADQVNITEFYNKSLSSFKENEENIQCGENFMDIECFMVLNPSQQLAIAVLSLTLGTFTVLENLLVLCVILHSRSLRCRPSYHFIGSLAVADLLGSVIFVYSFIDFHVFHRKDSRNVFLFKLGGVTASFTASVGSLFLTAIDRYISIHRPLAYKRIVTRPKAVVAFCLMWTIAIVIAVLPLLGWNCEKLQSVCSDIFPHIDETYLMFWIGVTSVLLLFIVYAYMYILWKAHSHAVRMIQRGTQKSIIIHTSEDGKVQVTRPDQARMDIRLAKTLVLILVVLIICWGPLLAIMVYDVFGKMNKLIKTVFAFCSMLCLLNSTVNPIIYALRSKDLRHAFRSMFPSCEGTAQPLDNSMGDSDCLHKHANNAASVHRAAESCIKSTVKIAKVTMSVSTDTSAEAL
Assay [8] has as its target T2, Cannabinoid receptor 2. Briefly: Displacement of [3H]CP55,940 from human CB2 receptor expressed in CHOK1 cell membranes after 2 hrs by liquid scintillation counting method.
Assay [9] deals with T1, Fatty-acid amide hydrolase 1. Briefly: Inhibition of FAAH in human U937 cells assessed as decrease in [ethanolamine-1-3H]AEA uptake preincubated for 2 mins followed by AEA addition after 5 mins by liquid scintillation counting method. Format: cell-based.
Assay [10] deals with T6, Cannabinoid receptor 1. Description: Displacement of [3H]CP55,940 from human CB1 receptor expressed in CHOK1 cell membranes at 1 uM after 2 hrs by liquid scintillation counting method relative to control.
The target of assay [11] is T7, Fatty-acid amide hydrolase 1 (Homo sapiens) (UniProt O00519).
T7 sequence (whole entry): T1 sequence (O00519 whole entry)
Briefly: Inhibition of FAAH in human U937 cells assessed as decrease in [ethanolamine-1-3H]AEA uptake at 10 uM preincubated for 2 mins followed by AEA addition after 5 mins by liquid scintillation counting method. Format: cell-based.

In assay [12] the target is T7, Fatty-acid amide hydrolase 1 (Homo sapiens). Description: Inhibition of FAAH in human U937 cells using [ethanolamine-1-3H]AEA as substrate at 10 uM after 15 mins by liquid scintillation counting method relative to control. Format: cell-based.

T2 sequence (P34972 whole entry): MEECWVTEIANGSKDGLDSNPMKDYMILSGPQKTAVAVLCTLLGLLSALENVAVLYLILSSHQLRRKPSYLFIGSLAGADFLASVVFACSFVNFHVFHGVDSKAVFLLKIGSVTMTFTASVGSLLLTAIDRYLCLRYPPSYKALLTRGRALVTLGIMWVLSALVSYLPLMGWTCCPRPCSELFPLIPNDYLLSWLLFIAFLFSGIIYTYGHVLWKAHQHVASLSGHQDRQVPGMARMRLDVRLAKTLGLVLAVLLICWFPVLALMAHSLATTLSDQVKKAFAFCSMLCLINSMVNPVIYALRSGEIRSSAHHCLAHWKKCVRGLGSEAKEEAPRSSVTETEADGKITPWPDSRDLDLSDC

For orientation: IC50 means the point on the concentration scale where inhibition reaches its midpoint. The term inhibition denotes how much of the control response was suppressed. For orientation: Ki means a measure of affinity in units of concentration, obtained from inhibition or displacement. Low readings indicate a stronger hold on the target, high ones a looser hold on the target. For `CCCCCCCCCCCC(=O)c1c(O)c(-c2ccc(O)cc2)c[nH]c1=O`, the IC50 in assay [1] is 4.6 µM; in [3] it was greater than 10 µM; in [4] it was greater than 10 µM; in assay [9] it was 0.8 µM. In addition, the inhibition result (at Cannabinoid receptor 2 [2]; in the assay listed under Sus scrofa; in [5]; in assay [6]) was “inactive” in each case. The Ki on Cannabinoid receptor 1 [7] was 1 µM; at Cannabinoid receptor 2 [8], greater than 1 µM. The results for the inhibition (on Cannabinoid receptor 1 [10]; in assay [12]) were 50% and 40 to 50%, respectively. The inhibition entry in assay [11] is “Active”.
Turning to `CCCCCCCCCCOC(=O)c1c(O)c(-c2ccc(O)cc2)c[nH]c1=O`, the IC50 in [1] is greater than 10 µM; in [3], greater than 10 µM; in [4], greater than 10 µM; in assay [9] it was 0.6 µM. In addition, the inhibition on Cannabinoid receptor 2 [2] was less than 20%; at Cannabinoid receptor 1 [10], less than 20%; in assay [12], 40 to 50%. Moreover, the inhibition entry (in the assay filed under Sus scrofa; in assay [5]; in assay [6]) was “inactive” throughout. For the same molecule, the Ki on Cannabinoid receptor 1 [7] and on Cannabinoid receptor 2 [8] was greater than 1 µM throughout. Also, in assay [11], the inhibition entry is “Active”.
